Measured values: PubChem BioAssay (NCI)
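Five concentrations, 48 hours, 96-well plates. Definition used: TGI = concentration required for complete inhibition of growth.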

What was measured:
Assay in all cases: NCI anticancer screen, dose series, 48 h
786-0 renal = tested on: 786-0 renal
A498 renal = tested on: A498 renal
A549 NSCLC = tested on: A549 NSCLC
ACHN renal = tested on: ACHN renal
BT-549 breast = tested on: BT-549 breast
CAKI-1 renal = tested on: CAKI-1 renal
CCRF-CEM leukemia = tested on: CCRF-CEM leukemia
COLO 205 colon = tested on: COLO 205 colon
DU-145 prostate = tested on: DU-145 prostate
EKVX NSCLC = tested on: EKVX NSCLC
HCC-2998 colon = tested on: HCC-2998 colon
HCT-116 colon = tested on: HCT-116 colon
HCT-15 colon = tested on: HCT-15 colon
HL-60(TB) leukemia = tested on: HL-60(TB) leukemia
HOP-62 NSCLC = tested on: HOP-62 NSCLC
HOP-92 NSCLC = tested on: HOP-92 NSCLC
HS 578T breast = tested on: HS 578T breast
HT29 colon = tested on: HT29 colon
IGROV1 ovarian = tested on: IGROV1 ovarian
K-562 leukemia = tested on: K-562 leukemia
KM12 colon = tested on: KM12 colon
LOX IMVI melanoma = tested on: LOX IMVI melanoma
M14 melanoma = tested on: M14 melanoma
MALME-3M melanoma = tested on: MALME-3M melanoma
MCF7 breast = tested on: MCF7 breast
MDA-MB-231 breast = tested on: MDA-MB-231 breast
MDA-MB-435 = tested on: MDA-MB-435
MDA-N = tested on: MDA-N
MOLT-4 leukemia = tested on: MOLT-4 leukemia
NCI-H226 lung = tested on: NCI-H226 lung
NCI-H23 lung = tested on: NCI-H23 lung
NCI-H460 lung = tested on: NCI-H460 lung
NCI-H522 lung = tested on: NCI-H522 lung
NCI/ADR-RES ovarian = tested on: NCI/ADR-RES ovarian
OVCAR-3 ovarian = tested on: OVCAR-3 ovarian
OVCAR-4 ovarian = tested on: OVCAR-4 ovarian
OVCAR-5 ovarian = tested on: OVCAR-5 ovarian
OVCAR-8 ovarian = tested on: OVCAR-8 ovarian
PC-3 prostate = tested on: PC-3 prostate
RPMI-8226 leukemia = tested on: RPMI-8226 leukemia
RXF 393 renal = tested on: RXF 393 renal
SF-268 CNS = tested on: SF-268 CNS
SF-295 CNS = tested on: SF-295 CNS
SF-539 CNS = tested on: SF-539 CNS
SK-MEL-2 melanoma = tested on: SK-MEL-2 melanoma
SK-MEL-28 melanoma = tested on: SK-MEL-28 melanoma
SK-MEL-5 melanoma = tested on: SK-MEL-5 melanoma
SK-OV-3 ovarian = tested on: SK-OV-3 ovarian
SN12C renal = tested on: SN12C renal
SNB-19 CNS = tested on: SNB-19 CNS
SNB-75 CNS = tested on: SNB-75 CNS
SR leukemia = tested on: SR leukemia
SW-620 colon = tested on: SW-620 colon
T-47D breast = tested on: T-47D breast
TK-10 renal = tested on: TK-10 renal
U251 CNS = tested on: U251 CNS
UACC-257 melanoma = tested on: UACC-257 melanoma
UACC-62 melanoma = tested on: UACC-62 melanoma
UO-31 renal = tested on: UO-31 renal

## CC(C)=CC(=O)c1[nH]c2ccccc2c1CC(=O)NCCc1cn(C(c2ccccc2)(c2ccccc2)c2ccccc2)cn1
786-0 renal
  TGI: > 100 µM
A498 renal
  TGI: > 50.5 µM
A549 NSCLC
  TGI: > 27.4 µM
ACHN renal
  TGI: > 100 µM
BT-549 breast
  TGI: 11 µM
CAKI-1 renal
  TGI: > 100 µM
CCRF-CEM leukemia
  TGI: > 24.3 µM
COLO 205 colon
  TGI: 3.4 µM
DU-145 prostate
  TGI: > 100 µM
EKVX NSCLC
  TGI: > 100 µM
HCC-2998 colon
  TGI: 3.78 µM
HCT-116 colon
  TGI: 10.6 µM
HCT-15 colon
  TGI: > 40.4 µM
HL-60(TB) leukemia
  TGI: 3.44 µM
HOP-62 NSCLC
  TGI: > 100 µM
HOP-92 NSCLC
  TGI: > 26.1 µM
HS 578T breast
  TGI: > 56.5 µM
HT29 colon
  TGI: > 42.7 µM
IGROV1 ovarian
  TGI: > 45 µM
K-562 leukemia
  TGI: > 59.6 µM
KM12 colon
  TGI: 14.2 µM
LOX IMVI melanoma
  TGI: 4.46 µM
M14 melanoma
  TGI: 4.8 µM
MALME-3M melanoma
  TGI: 12.5 µM
MCF7 breast
  TGI: > 100 µM
MDA-MB-231 breast
  TGI: 6.36 µM
MDA-MB-435
  TGI: 4.42 µM
MDA-N
  TGI: 9.75 µM
MOLT-4 leukemia
  TGI: 5.49 µM
NCI-H226 lung
  TGI: 6.28 µM
NCI-H23 lung
  TGI: > 36.2 µM
NCI-H460 lung
  TGI: 10.6 µM
NCI-H522 lung
  TGI: 19.8 µM
NCI/ADR-RES ovarian
  TGI: 10.8 µM
OVCAR-3 ovarian
  TGI: > 100 µM
OVCAR-4 ovarian
  TGI: > 58.7 µM
OVCAR-5 ovarian
  TGI: 87.7 µM
OVCAR-8 ovarian
  TGI: > 100 µM
PC-3 prostate
  TGI: 6.75 µM
RPMI-8226 leukemia
  TGI: 5.23 µM
RXF 393 renal
  TGI: 13.5 µM
SF-268 CNS
  TGI: > 53.3 µM
SF-295 CNS
  TGI: > 100 µM
SF-539 CNS
  TGI: 5.21 µM
SK-MEL-2 melanoma
  TGI: 3.54 µM
SK-MEL-28 melanoma
  TGI: 12.4 µM
SK-MEL-5 melanoma
  TGI: 3.84 µM
SK-OV-3 ovarian
  TGI: > 100 µM
SN12C renal
  TGI: > 23.9 µM
SNB-19 CNS
  TGI: > 30.4 µM
SNB-75 CNS
  TGI: > 100 µM
SR leukemia
  TGI: 4.88 µM
SW-620 colon
  TGI: > 100 µM
T-47D breast
  TGI: > 100 µM
TK-10 renal
  TGI: > 100 µM
U251 CNS
  TGI: 9.17 µM
UACC-257 melanoma
  TGI: > 67.4 µM
UACC-62 melanoma
  TGI: 4.72 µM
UO-31 renal
  TGI: > 29.4 µM

## CCCCC(=O)OC[n+]1cccc(-c2c(COC(=O)NC(C)C)c(COC(=O)NC(C)C)c3n2CCC3)c1
786-0 renal
  TGI: > 85 µM
A498 renal
  TGI: 49.2 µM
A549 NSCLC
  TGI: > 100 µM
ACHN renal
  TGI: 82.8 µM
BT-549 breast
  TGI: > 100 µM
CAKI-1 renal
  TGI: 56 µM
CCRF-CEM leukemia
  TGI: > 77.4 µM
COLO 205 colon
  TGI: > 100 µM
DU-145 prostate
  TGI: 71.6 µM
EKVX NSCLC
  TGI: > 100 µM
HCC-2998 colon
  TGI: > 100 µM
HCT-116 colon
  TGI: > 100 µM
HCT-15 colon
  TGI: > 100 µM
HL-60(TB) leukemia
  TGI: > 81.9 µM
HOP-62 NSCLC
  TGI: > 100 µM
HOP-92 NSCLC
  TGI: 77.2 µM
HS 578T breast
  TGI: > 100 µM
HT29 colon
  TGI: > 100 µM
IGROV1 ovarian
  TGI: > 100 µM
K-562 leukemia
  TGI: > 100 µM
KM12 colon
  TGI: > 100 µM
LOX IMVI melanoma
  TGI: > 65.9 µM
M14 melanoma
  TGI: > 100 µM
MALME-3M melanoma
  TGI: > 100 µM
MCF7 breast
  TGI: > 100 µM
MDA-MB-231 breast
  TGI: > 100 µM
MDA-MB-435
  TGI: > 100 µM
MDA-N
  TGI: > 100 µM
MOLT-4 leukemia
  TGI: > 100 µM
NCI-H226 lung
  TGI: > 100 µM
NCI-H23 lung
  TGI: 98.7 µM
NCI-H460 lung
  TGI: > 100 µM
NCI-H522 lung
  TGI: 49.4 µM
NCI/ADR-RES ovarian
  TGI: > 100 µM
OVCAR-3 ovarian
  TGI: > 100 µM
OVCAR-4 ovarian
  TGI: > 92.6 µM
OVCAR-5 ovarian
  TGI: > 100 µM
OVCAR-8 ovarian
  TGI: > 100 µM
PC-3 prostate
  TGI: > 100 µM
RPMI-8226 leukemia
  TGI: > 100 µM
RXF 393 renal
  TGI: 55.2 µM
SF-268 CNS
  TGI: > 81.5 µM
SF-295 CNS
  TGI: > 100 µM
SF-539 CNS
  TGI: > 76 µM
SK-MEL-2 melanoma
  TGI: 70.6 µM
SK-MEL-28 melanoma
  TGI: > 100 µM
SK-MEL-5 melanoma
  TGI: > 100 µM
SK-OV-3 ovarian
  TGI: > 100 µM
SN12C renal
  TGI: > 100 µM
SNB-19 CNS
  TGI: > 100 µM
SNB-75 CNS
  TGI: > 100 µM
SR leukemia
  TGI: 52.3 µM
SW-620 colon
  TGI: > 100 µM
T-47D breast
  TGI: > 100 µM
TK-10 renal
  TGI: > 100 µM
U251 CNS
  TGI: > 100 µM
UACC-257 melanoma
  TGI: > 100 µM
UACC-62 melanoma
  TGI: 60.7 µM
UO-31 renal
  TGI: 71.7 µM
